Data as given in patent US20240196899A1, “PESTICIDAL MIXTURES” (priority 2021, published 2024).

What was measured:
[1] = system: Spodoptera littoralis larvae; experiment: Larval mortality of S. littoralis fed on treated castor bean leaves (tank mix novaluron + methoxyfenozide), Colby synergy; type: in vivo; settings: Table 1, 0.01 mg a.i./L of each active
Procedure: (§1) Colby's method is used to determine if synergy exists for a combination of active ingredients. According to Colby, the expected action (E) of active ingredients A+B is:
(§2) [formula] • where E=expected efficacy, A and B=the efficacy of two active ingredients A and B at a given dose.
(§3) When the percentage of control observed (O) for the combination is greater than the expected (E) percentage, there is a synergistic effect. The synergism ratio (R) is calculated as the ratio between the […].
A representative experiment was conducted to evaluate the insecticidal control of novaluron, a compound II, namely methoxyfenozide as well as a mixture of novaluron and methoxyfenozide against Spodoptera littoralis larvae.
(§4) The experiments were conducted by applying commercially available compositions of Novaluron (Rimon®) and methoxyfenozide (Runner®) alone or together. The compositions were diluted with water to the stated concentration of the active compound.
(§5) The following active ingredients and their mixtures were evaluated: • Novaluron: 0.01 mg a.i./liter • Methoxyfenozide: 0.01 mg a.i./liter • Novaluron+Methoxyfenozide 0.01 mg a.i./liter+0.01 mg a.i./liter
(§6) To evaluate the insecticidal control of novaluron and methoxyfenozide alone and in a binary mixture, castor bean leaves were treated with the above listed treatments. The treated leaves were exposed for 4-day feeding to 3rd-instar Spodoptera littoralis and the larvae were exposed for additional 4 days on untreated leaves. Larval mortality was determined at day 4 and 8. The treatments were composed of 3-5 replicates of 10 larvae each.

[2] = system: Spodoptera littoralis larvae; experiment: Larval weight gain (LWG) of S. littoralis on treated castor bean leaves; type: in vivo; settings: Table 3
Procedure: as §4, §5, §6
Larval weight gain (LWG) was also measured in order to determine the effectiveness of the mixture of novaluron and methoxyfenozide when compared to the solo application of novaluron and methoxyfenozide.
Table 3 below summarizes the larval weight gain (LWG) (compared to the control), that was determined 4 days after treatment for the mixture of novaluron and methoxyfenozide.

[3] = system: T. absoluta; experiment: Insecticidal % control against T. absoluta, Colby synergy; type: in vivo, Tuta absoluta; settings: 72 hours after treatment
Procedure: as §1, §2, §3
(§7) The insecticidal compounds A (Novaluron) and B (mix partner) are formulated as equivalent suspension concentrates to eliminate the effects of differing formulation inerts on biological activity. Efficacy of the insecticidal compositions is evaluated with reference to a scale of 0% to 100% in comparison with untreated control plots. 0 means no damage and 100 means complete destruction of the harmful pests.
(§8) Likewise following experimentations were done on other mixtures of novaluron on various pests, the result of which are summarized in the below tables: […]

[4] = system: F. occidentalis; experiment: Insecticidal % control against F. occidentalis, Colby synergy; type: in vivo, Frankliniella occidentalis
Procedure: as §1, §2, §3, §7, §8

[5] = system: S. frugiperda; experiment: Insecticidal % control against S. frugiperda, Colby synergy; type: in vivo, Spodoptera frugiperda; settings: 120 hours after treatment
Procedure: as §1, §2, §3, §7, §8

[6] = system: Cotton Leafworm, S. littoralis; experiment: Insecticidal % control against Cotton Leafworm, S. littoralis, Colby synergy; type: in vivo, Spodoptera littoralis; settings: 72 hours after treatment
Procedure: as §1, §2, §3, §7, §8

[7] = system: M. persicae; experiment: Insecticidal % control against M. persicae, Colby synergy; type: in vivo, Myzus persicae
Procedure: as §1, §2, §3, §7, §8

[8] = system: T. urticae; experiment: Insecticidal % control against T. urticae, Colby synergy; type: in vivo, Tetranychus urticae
Procedure: as §1, §2, §3, §7, §8

[9] = system: B. tabaci; experiment: Insecticidal % control against B. tabaci, Colby synergy; type: in vivo, Bemisia tabaci; settings: Table 7, 72 hours after treatment
Procedure: as §1, §2, §3, §7, §8

[10] = system: A. gossypii; experiment: Insecticidal % control against A. gossypii, Colby synergy; type: in vivo, Aphis gossypii; settings: 96 hours after treatment
Procedure: as §1, §2, §3, §7, §8

[11] = system: H. halys; experiment: Insecticidal % control against H. halys, Colby synergy; type: in vivo, Halyomorpha halys; settings: Table 20 B; 144 hours after treatment; 50 ppm
Procedure: as §1, §2, §3, §7, §8

For `O=C(NC(=O)c1c(F)cccc1F)Nc1ccc(OC(F)(F)C(F)OC(F)(F)F)c(Cl)c1` (single isomer, unassigned; (+)) [Novaluron, (+)-I-[3-chloro-4-(1,1,2-trifluoro-2-trifluoromethoxyethoxy)phenyl]-3-(2,6-difluorobenzoyl) urea], the “Larval mortality, % (observed) 4 d” value ([1]; 3rd-instar larvae, 4-day feeding on treated leaves, day 4) was 3.5%, the “Larval mortality, % (observed) 8 d” value ([1]; 4 days on treated then 4 days on untreated leaves, day 8) was 20% and the “LWG % rel. Control” value ([2]; 4 days after treatment, 0.01 mg a.i./L of each active) was 108 % rel. Control. The “effect on the weight gain of the Spodoptera littoralis larvae” value ([2]; applied alone) was “neither novaluron nor methoxyfenozide alone have any effect on the weight gain”, the “Observed % control (O)” value ([3]; Table 2, 300 ppm) was 0% and the “Observed % control (O)” value ([3]; Table 5 C, 0.1 ppm) was 16.7%. The “Observed % control (O)” value ([3]; Table 5 C, 1 ppm) was 16.7%, the “Observed % control (O)” value ([3]; Table 5 C, 300 ppm) was 16.7% and the “Observed % control (O)” value ([4]; Table 4 A, 48 hours after treatment, 5.3 ppm) was 14.0%. For the same compound, the “Observed % control (O)” value ([4]; Table 4 B, 72 hours after treatment, 5.3 ppm) was 20.0%, the “Observed % control (O)” value ([4]; Table 4 C, 7 days after treatment, 5.3 ppm) was 40.0% and the “Observed % control (O)” value ([4]; Table 5 D, 48 hours after treatment, 3.5 ppm) was 4.0%. The “Observed % control (O)” value ([4]; Table 5 E, 72 hours after treatment, 3.5 ppm) was 4.0%, the “Observed % control (O)” value ([4]; Table 5 F, 7 days after treatment, 3.5 ppm) was 8.0% and the “Observed % control (O)” value ([4]; Table 18 B, 72 hours after treatment, 5 ppm) was 10.0%. The “Observed % control (O)” value ([4]; Table 18 B, 72 hours after treatment, 500 ppm) was 10.0%, the “Observed % control (O)” value ([4]; Table 20 C, 48 hours after treatment, 1 ppm) was 16.0% and the “Observed % control (O)” value ([4]; Table 20 D, 72 hours after treatment, 1 ppm) was 50.0%. For the same compound, the “Observed % control (O)” value ([4]; Table 20 D, 72 hours after treatment, 100 ppm) was 50.0%, the “Observed % control (O)” value ([4]; Table 20 E, 7 days after treatment, 1 ppm) was 74.0% and the “Observed % control (O)” value ([4]; Table 20 E, 7 days after treatment, 100 ppm) was 84.0%. The “Observed % control (O)” value ([5]; Table 5 A, 0.01 ppm) was 27%, the “Observed % control (O)” value ([5]; Table 5 A, 0.05 ppm) was 40% and the “Observed % control (O)” value ([5]; Table 9, 0.01 ppm) was 27%. For the same compound, the “Observed % control (O)” value ([5]; Table 9, 0.025 ppm) was 30%, the “Observed % control (O)” value ([5]; Table 10 A, 0.025 ppm) was 30% and the “Observed % control (O)” value ([6]; Table 5 B, 0.02 ppm) was 0%. For the same compound, the “Observed % control (O)” value ([6]; Table 8, 12 ppm) was 75%, the “Observed % control (O)” value ([6]; Table 10 B, 0.02 ppm) was 30% and the “Observed % control (O)” value ([6]; Table 11, 12 ppm) was 25%. For the same compound, the “Observed % control (O)” value ([6]; Table 12, 12 ppm) was 75%, the “Observed % control (O)” value ([6]; Table 13, 12 ppm) was 75% and the “Observed % control (O)” value ([6]; Table 16, 0.04 ppm) was 73%. The “Observed % control (O)” value ([6]; Table 20 A, 0.02 ppm) was 0%, the “Observed % control (O)” value ([6]; Table 20 A, 0.2 ppm) was 5% and the “Observed % control (O)” value ([6]; Table 21, 12 ppm) was 12.5%. The “Observed % control (O)” value ([7]; Table 6 A, 72 hours after treatment, 1 ppm) was 34%, the “Observed % control (O)” value ([7]; Table 6 B, 7 days after treatment, 1 ppm) was 38.8% and the “Observed % control (O)” value ([7]; Table 15 A, 48 hours after treatment, 50 ppm) was 14%. For the same compound, the “Observed % control (O)” value ([7]; Table 15 B, 72 hours after treatment, 0.5 ppm) was 30%, the “Observed % control (O)” value ([7]; Table 15 B, 72 hours after treatment, 50 ppm) was 44% and the “Observed % control (O)” value ([7]; Table 17 A, 72 hours after treatment, 0.2 ppm) was 56%. For the same compound, the “Observed % control (O)” value ([7]; Table 17 B, 7 days after treatment, 0.2 ppm) was 62.5%, the “Observed % control (O)” value ([7]; Table 19 B, 7 days after treatment, 500 ppm) was 72.9% and the “Observed % control (O)” value ([8]; Table 6 C, 48 hours after treatment, 6 ppm) was 0%. The “Observed % control (O)” value ([8]; Table 6 D, 72 hours after treatment, 6 ppm) was 0%, the “Observed % control (O)” value ([8]; Table 6 E, 7 days after treatment, 6 ppm) was 6.1% and the “Observed % control (O)” value ([8]; Table 14 A, 48 hours after treatment, 2.4 ppm) was 12%. The “Observed % control (O)” value ([8]; Table 14 A, 48 hours after treatment, 120 ppm) was 8%, the “Observed % control (O)” value ([8]; Table 14 B, 72 hours after treatment, 2.4 ppm) was 13% and the “Observed % control (O)” value ([8]; Table 14 B, 72 hours after treatment, 120 ppm) was 10%. For the same compound, the “Observed % control (O)” value ([8]; Table 14 C, 7 days after treatment, 2.4 ppm) was 15%, the “Observed % control (O)” value ([8]; Table 14 C, 7 days after treatment, 120 ppm) was 17% and the “Observed % control (O)” value ([9]; 7 ppm) was 23.1%. The “Observed % control (O)” value ([9]; 35 ppm) was 25.2%, the “Observed % control (O)” value ([10]; Table 18 A, 10 ppm) was 16.2% and the “Observed % control (O)” value ([10]; Table 19 A, 100 ppm) was 16.5%. The “Observed % control (O)” value [11] was 12.5%.
